The values below come from ChEMBL document CHEMBL2390905, “Recent development of potent analogues of oxazolidinone antibacterial agents” (Bioorg Med Chem, 2013).

SMILES strings stand for the structures. Values after ≈ are worked out from the molar mass of the structure shown. Some results are limits rather than exact numbers.

What is called Ki is the equilibrium dissociation constant of an inhibitor or competing ligand from its target. Lower therefore signals higher affinity. By MIC is commonly meant the least concentration at which growth counts as inhibited.

The target in assay [1] is T1, Amine oxidase [flavin-containing] A (Homo sapiens, UniProt P21397).
T1 sequence (P21397 whole entry): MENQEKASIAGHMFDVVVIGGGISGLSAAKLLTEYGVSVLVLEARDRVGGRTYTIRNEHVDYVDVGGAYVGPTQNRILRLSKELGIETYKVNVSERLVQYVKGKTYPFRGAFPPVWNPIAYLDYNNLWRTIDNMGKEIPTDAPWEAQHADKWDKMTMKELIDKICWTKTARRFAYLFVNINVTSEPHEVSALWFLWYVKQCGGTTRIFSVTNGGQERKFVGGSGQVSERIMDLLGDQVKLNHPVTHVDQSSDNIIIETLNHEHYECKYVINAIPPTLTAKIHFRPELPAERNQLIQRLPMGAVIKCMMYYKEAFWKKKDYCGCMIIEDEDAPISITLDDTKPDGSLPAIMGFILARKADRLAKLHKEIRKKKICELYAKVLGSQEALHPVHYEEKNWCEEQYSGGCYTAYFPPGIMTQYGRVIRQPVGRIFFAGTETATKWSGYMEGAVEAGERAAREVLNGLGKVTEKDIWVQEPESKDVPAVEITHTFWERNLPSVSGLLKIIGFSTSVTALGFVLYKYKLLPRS
Put plainly: Inhibition of MAO-A (unknown origin) by luciferase […] assay. A general note: In a reporter assay the amount or activity of a reporter protein is the signal.

Assay [2] relates to Enterococcus faecalis. Put plainly: Antibacterial activity against Enterococcus faecalis assessed as growth inhibition. The assay is classed as functional.
Assay [3] deals with Staphylococcus epidermidis. Put plainly: Antibacterial activity against Staphylococcus epidermidis assessed as growth inhibition. Type of assay: functional.
The subject of assay [4] is Staphylococcus aureus. Put plainly: Antibacterial activity against methicillin-resistant Staphylococcus aureus assessed as growth inhibition. Type of assay: functional.
Assay [5] concerns Enterococcus faecium. Put plainly: Antibacterial activity against Enterococcus faecium ATCC 700221 assessed as growth inhibition after 16 to 20 hrs by broth microdilution method. The assay is classed as functional. Background: Broth dilution looks for growth in wells or tubes with falling amounts of substance.
The test system of assay [6] is Staphylococcus aureus. Put plainly: Antibacterial activity against linezolid-resistant Staphylococcus aureus PTCC 100 assessed as growth inhibition after 16 to 20 hrs by broth microdilution method. The assay is classed as functional.
The subject of assay [7] is Enterococcus faecalis. Put plainly: Antibacterial activity against Enterococcus faecalis ATCC 29212 assessed as growth inhibition after 16 to 20 hrs by broth microdilution method. The assay is classed as functional.
Assay [8] deals with Staphylococcus aureus. Put plainly: Antibacterial activity against methicillin-resistant Staphylococcus aureus ATCC 33591 assessed as growth inhibition after 16 to 20 hrs by broth microdilution method. The assay is classed as functional.
Assay [9] deals with Staphylococcus aureus. Put plainly: Antibacterial activity against methicillin-sensitive Staphylococcus aureus ATCC 29213 assessed as growth inhibition after 16 to 20 hrs by broth microdilution method. The assay is classed as functional.
For assay [10], the system named is Mycobacterium tuberculosis. Put plainly: Ratio of mefloquine MIC to compound MIC for Mycobacterium tuberculosis H37Rv. The assay is classed as functional.
The next assay deals with Escherichia coli. Put plainly: Ratio of linezolid MIC to compound MIC for Escherichia coli. Type of assay: functional.
Assay [11] deals with Enterococcus faecium. Put plainly: Ratio of linezolid MIC to compound MIC for multidrug-resistant Enterococcus faecium. Type of assay: functional.
Assay [12] relates to Enterococcus faecalis. Put plainly: Ratio of linezolid MIC to compound MIC for multidrug-resistant Enterococcus faecalis. Type of assay: functional.
Assay [13] deals with Staphylococcus epidermidis. Put plainly: Ratio of linezolid MIC to compound MIC for multidrug-resistant Staphylococcus epidermidis. The assay is classed as functional.
The subject of assay [14] is Staphylococcus aureus. Put plainly: Ratio of linezolid MIC to compound MIC for multidrug-resistant Staphylococcus aureus. The assay is classed as functional.
The test system of assay [15] is Haemophilus influenzae. Put plainly: Ratio of linezolid MIC to compound MIC for Haemophilus influenzae. The assay is classed as functional.
In assay [16] the test system is Haemophilus influenzae. Put plainly: Ratio of tedizolid MIC to compound MIC for Haemophilus influenzae. Type of assay: functional.
For assay [17], the system named is Enterococcus. Put plainly: Ratio of tedizolid MIC to compound MIC for Enterococcus spp. Type of assay: functional.
The test system of assay [18] is Streptococcus pneumoniae. Put plainly: Ratio of tedizolid MIC to compound MIC for Streptococcus pneumoniae. The assay is classed as functional.
In assay [19] the test system is Staphylococcus aureus. Put plainly: Ratio of tedizolid MIC to compound MIC for methicillin-resistant Staphylococcus aureus. The assay is classed as functional.
For assay [20], the system named is Streptococcus pneumoniae. Put plainly: Ratio of linezolid MIC to compound MIC for Streptococcus pneumoniae. Type of assay: functional.
Assay [21] concerns Staphylococcus aureus. Put plainly: Ratio of linezolid MIC to compound MIC for methicillin-resistant Staphylococcus aureus. The assay is classed as functional.
The subject of assay [22] is Enterococcus. Put plainly: Ratio of linezolid MIC to compound MIC for Enterococcus spp. Type of assay: functional.

`CC(=O)NC[C@H]1CN(c2ccc(N3CCOCC3)c(F)c2)C(=O)O1` [LINEZOLID]: affinity in [1] was put at a Ki of 7.9 µM.

For the molecule `CC(=O)NC[C@H]1CN(c2ccc(N3CCN(C(=O)C(Cl)Cl)CC3)c(F)c2)C(=O)O1`, the results for the MIC (in the assay on Enterococcus faecalis [2]; in [3]; with Staphylococcus aureus [4]) were 0.5 µg/mL (≈ 1.12 µM), 1 µg/mL (≈ 2.24 µM) and 1 µg/mL (≈ 2.24 µM), respectively.

In turn, `CN1CCN(c2ccc(N3C[C@H](COC(N)=S)OC3=O)cc2F)C=N1` yielded a Ki in assay [1] of 4 µM.

As for `O=C(/C=C/c1ccccc1)NC[C@H]1CN(c2cc(F)c(N3CCN(C(=O)CNC(=O)c4cn5cccnc5n4)CC3)c(F)c2)C(=O)O1`, the MIC in the assay on Enterococcus faecium [5] worked out at 0.25 µg/mL (≈ 0.388 µM); in the assay on Staphylococcus aureus [6], 1 µg/mL (≈ 1.55 µM); with Enterococcus faecalis [7], 0.125 µg/mL (≈ 0.194 µM); in the assay on Staphylococcus aureus [8] it was 0.125 µg/mL (≈ 0.194 µM); with Staphylococcus aureus [9] it was 0.125 µg/mL (≈ 0.194 µM).

For the molecule `CCOC(=O)c1cc(COc2cc(C(F)(F)F)nc3c(C(F)(F)F)cccc23)on1`, the Ratio in [10] is 14.4.

`CC(=O)NC[C@H]1CN(c2ccc(N3C=NN(C)CC3)c(F)c2)C(=O)O1`: the Ki in [1] is 4 µM.

Regarding `CC(=O)NC[C@H]1CN(c2ccc(-c3ccc(C(=O)NN)cc3)c(F)c2)C(=O)O1`, the Ratio (with Escherichia coli; in the assay with Enterococcus faecium [11]; in the assay with Enterococcus faecalis [12]; in assay [13]; in the assay on Staphylococcus aureus [14]; with Haemophilus influenzae [15]) was 2 each time.

`CC(=O)NC[C@H]1CN(c2ccc(N3CCN(C(=O)CCl)CC3)c(F)c2)C(=O)O1`: the MIC in the assay with Enterococcus faecalis [2] turned out to be 0.5 µg/mL (≈ 1.21 µM); in assay [3], 1 µg/mL (≈ 2.42 µM); with Staphylococcus aureus [4] it was 1 µg/mL (≈ 2.42 µM).

Take `O=C1O[C@@H](CO)CN1c1ccc(-c2ccc(N3CCOC3=O)nc2)c(F)c1`: the Ratio with Haemophilus influenzae [16] is 2; in the assay with Enterococcus [17], 2; in the assay with Streptococcus pneumoniae [18] it was 2; with Haemophilus influenzae [15], 8; in the assay with Staphylococcus aureus [19] it was 2; in the assay with Streptococcus pneumoniae [20] it was 8. For the same molecule, the Ratio in the assay with Staphylococcus aureus [21] and with Enterococcus [22] was 8 throughout.

The molecule `Cn1nnc(-c2ccc(-c3ccc(N4C[C@H](CO)OC4=O)cc3F)cn2)n1` [TEDIZOLID] gave a Ki in assay [1] below 2 µM.
